Assay results from patent US10322188B2, “Cell-penetrating drug carrier and the application thereof” (National Central University, priority 2014, dated 2019).
Ends that are not written are not given here.

Experiments:
HepG2 cells [1] = test: DOX fluorescence intensity in HepG2 cytoplasm (intracellular translocation); type: cell-based; conditions: incubating time from 1 hour to 6 hours; FIG. 1B
Procedure: Besides, in order to ensure whether the cell-penetrating peptide is helpful to the translocation of DOX, after incubating for 1 to 6 hours, the DOX fluorescence intensity of in HepG2 tumor cell cytoplasm is measured and shown as FIG. 1B.
(§1) In this example, HepG2 cells are individually incubated in DOX, DOX and IL-R57F89 mixed solution, and IL-R57F89-DOX for 1 hour, and measured the fluorescence intensity as FIG. 3.

HepG2 cells [2] = test: Cell viability of HepG2 cells incubated with peptide, DOX or a mixture for 1 hour and 6 hours; type: cell-based; conditions: 25 µM peptide, 25 µM DOX or mixed solution of both; incubating for 1 hour and 6 hours; FIG. 1A
Procedure: In this example, HepG2 cells are individually incubated in 25 µM peptide solution, 25 µM DOX, and a mixed solution of 25 µM DOX and 25 µM peptide. And the cell viability of the mentioned HepG2 cells is followed after incubating for 1 hour and 6 hours.

HepG2 cell = test: Cytotoxicity test on HepG2 cells, 24 hours; type: cell-based; conditions: acted on HepG2 cell for 24 hour; FIG. 10
Procedure: as §1
DOX and PEG5K-GPLGI-P17-DOX are processed cytotoxicity test.

trypsin = test: Protease stability test: trypsin digestion followed by RPC-UV280; type: in vitro ADME
Text: It can be expected that drug carrier in vivo circulation will face to many bio-enzymes, wherein those bio-enzymes will cut the drug carrier. Before designing proper protection to those bio-enzymes, we hope to finger out the cutting result of the recognizable sequence-CPP (cell-penetrating peptide) by bio-enzymes. In this example, trypsin is employed as the bio-enzyme. Trypsin is a protease with selectivity, especially for cutting the carboxyl side of arginine (R) or lysine (K) of protein or peptide. In this example, when CPP is IL-R57F89, there are four arginine fragments in CPP being able to be cut by trypsin. Those four arginine fragments are R5, R7, R12, and R13.
FIG. 6A and FIG. 6B are respectively the RPC-UV280 spectra of IL-R57F89 and GPLSI-P17 digested by 0.1 g/mL trypsin. The gradient elution is 20-70% ACN, 5-30 min. In the spectra, there are sampling analysis results of 5, 10, 20, 30, 60, 120, and 240 min from top to bottom. […] According to this example, it can be noticed that it has to design a proper structure for keeping the recognizable sequence-CPP of drug carrier from cut by bio-enzyme(s) before the drug carrier achieving the target cell.
Subsequently, it is important to find out proper PEG length so that the PEG can provide protection to the recognizable sequence-CPP and the PEG will not impact the anchoring of the target cell to the recognizable sequence. FIG. 7B presents the trypsin digestion results of IL-R57F89, GPLSI-P17, PEG1K-GPLSI-P17, PEG2K-GPLSI-P17, PEG5K-GPLSI-P17, and PEG5K-GPLGI-P17. […] PEG1K-GPLSI-P17 is digested about 80% after 2 hours. After digesting for 4 hours, PEG2K-GPLSI-P17 and PEGSK-GPLSI-P17 are individually digested about 50% and 45%. It can be ensured that the PEG with proper length can efficiently keep the recognizable sequence-CPP from digested by bio-enzyme. And, when adjusting the PEG length with the length of the recognizable sequence-CPP, the protection of the PEG to the recognizable sequence-CPP can be optimized. For example, to those general recognizable sequence-CPP now, the proper length of PEG is about 1000-25000 Da.

MMP-2 = molecular target: T1, MMP-2 (Homo sapiens, UniProt P08253); test: Digestion of recognizable sequence by MMP-2, followed by RPC / RP-HPLC; type: biochemical
T1 sequence (P08253 110-660): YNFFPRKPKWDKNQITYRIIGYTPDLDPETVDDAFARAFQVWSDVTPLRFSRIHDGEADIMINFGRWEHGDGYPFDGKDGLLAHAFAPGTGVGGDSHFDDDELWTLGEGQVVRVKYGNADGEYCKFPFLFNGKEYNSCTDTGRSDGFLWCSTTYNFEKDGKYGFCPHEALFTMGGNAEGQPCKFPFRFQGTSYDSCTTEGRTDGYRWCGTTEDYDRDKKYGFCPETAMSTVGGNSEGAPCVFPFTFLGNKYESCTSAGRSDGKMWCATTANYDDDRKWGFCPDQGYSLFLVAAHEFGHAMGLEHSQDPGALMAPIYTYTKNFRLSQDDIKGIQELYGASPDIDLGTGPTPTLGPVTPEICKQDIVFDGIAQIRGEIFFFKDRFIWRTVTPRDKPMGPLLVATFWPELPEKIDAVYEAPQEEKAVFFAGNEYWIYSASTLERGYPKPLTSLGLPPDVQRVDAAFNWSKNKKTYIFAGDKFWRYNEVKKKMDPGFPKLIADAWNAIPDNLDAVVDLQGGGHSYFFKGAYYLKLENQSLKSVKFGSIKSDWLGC
Procedure: In the experiment of employing MMP-2 to cut/digest recognizable sequence, after individually adding tryptophan (abbreviated symbol as “W”) at the C-terminus and the N-terminus of the recognizable sequence, the digestion of the recognizable sequence by MMP-2 can be followed by the character absorption wave length at 280 nm.
FIG. 4A to FIG. 4C respectively presents the reversed 1phase chromatography (RPC) analysis of 100 µM P1, P2, and P4 in Table 1 digested by 1 g/mL MMP-2. The gradient elution is 0-100% ACN, 50 min. […] Another recognizable sequence P4 with the same length as P3 and different amino acid fragments is designed.
The ILPW fragment from P4 digestion and the first four amino acid fragment of IL-R57F89 are the same. There are two MMP-2 cut-able sequences, GPLSI-P17 and GPLGI-P17, designed with the sequence individually as GPLS-ILPWRWRFFPWRR (SEQ ID NO: 11) and GPLG-ILPWRWRFFPWRR (SEQ ID NO: 10). The RP-HPLC analysis of GPLSI-P17 and GPLGI-P17 digested by MMP-2 are shown as FIG. 5A and FIG. 5B. It should be noticed that we ensure the peak of IL-R57F89 before the digestion of GPLSI-P17 and GPLGI-P17. […] Therefore, GPLSI-P17 and GPLGI-P17 can be employed as the recognizable sequence of this application.
Including providing protection to recognizable sequence-CPP, proper PEG length will not impact the anchoring of the target cell to the recognizable sequence. Therefore, we try to finger out the effect of the PEG length to the following anchoring. PEG5K-GPLSI-P17 and PEG5K-GPLGI-P17 are individually dissolved in pH 7.4 HEPES buffer. MMP-2 is added into the above solutions and the final concentration is about 1 g/mL. The solutions are independently reacted at 37° C. for 24 hours. The reaction results are analyzed by RPC and shown as FIG. 8A and FIG. 8B.

[3] = 0.1 g/mL trypsin, after 2 hours, FIG. 6A, 6B
[4] = 100 µM peptide, 1 g/mL MMP-2, after digesting for 2 hours, FIG. 4A, 4B
[5] = after 24 hours, FIG. 4C, 5A, 5B

For `COc1cccc2c1C(=O)c1c(O)c3c(c(O)c1C2=O)C[C@@](O)(C(=O)CO)C[C@@H]3O[C@H]1C[C@H](N)[C@H](O)[C@H](C)O1` [DOX, doxorubicin], the “DOX fluorescence intensity in HepG2 tumor cell cytoplasm, change with incubating time” value (HepG2 cells [1]) was “increased”, the “cytotoxicity to HepG2 cell (cell viability)” value (“cytotoxicity to HepG2 cell” below) (HepG2 cells [2]) was “do not present obvious cytotoxicity” and the “cell viability of HepG2” value (HepG2 cell) was “efficiently decrease the cell viability”.
With GPLSILPWRWRFFPWRR [GPLSI-P17] the digestion by trypsin (trypsin; [3]) was “almost digested completely” and the digestion by trypsin (trypsin; after about 1 hour, FIG. 7B) was “almost digested completely”.
For P1: MMP-2 cut-able sequence WGPLGIAGQW, the “digestion by MMP-2” value (MMP-2; [4]) was “still can be digested by MMP-2”.
For P4: MMP-2 cut-able sequence WGPLGILPW, the “digestion by MMP-2” value (MMP-2; [5]) was “totally digested”.
With “GPLGI-P17: recognizable sequence-CPP GPLG-ILPWRWRFFPWRR (SEQ ID NO: 10) (GPLGILPWRWRFFPWRR; the sequence is synthesized)” the “digestion by MMP-2” value (MMP-2; [5]) was “totally digested”.
In the case of `CC[C@H](C)[C@H](N)C(=O)N[C@@H](CC(C)C)C(=O)N1CCC[C@H]1C(=O)N[C@@H](Cc1c[nH]c2ccccc12)C(=O)N[C@@H](CCCCN)C(=O)N[C@@H](Cc1c[nH]c2ccccc12)C(=O)N1CCC[C@H]1C(=O)N[C@@H](Cc1c[nH]c2ccccc12)C(=O)N[C@@H](Cc1c[nH]c2ccccc12)C(=O)N1CCC[C@H]1C(=O)N[C@@H](Cc1c[nH]c2ccccc12)C(=O)N[C@@H](CCCNC(=N)N)C(=O)N[C@@H](CCCNC(=N)N)C(=O)O` [IL, Indolicidin], the “cytotoxicity to HepG2 cell” value (HepG2 cells [2]) is reported as “do not present obvious cytotoxicity”.
For ILPWRWRFFPWRR [IL-R57F89], the digestion by trypsin (trypsin; [3]) was “almost digested completely”, the digestion by trypsin (trypsin; after about 1 hour, FIG. 7B) was “almost digested completely” and the “cytotoxicity to HepG2 cell” value (HepG2 cells [2]) was “do not present obvious cytotoxicity”.
P2: MMP-2 cut-able sequence WGPLGIAGW was tested, and the “digestion by MMP-2” value (MMP-2; [4]) was “totally digested”.
